Reference: ChEMBL document CHEMBL1158504, “Cell permeability of Py-Im-polyamide-fluorescein conjugates: Influence of molecular size and Py/Im content” (Bioorg Med Chem, 2010)

Columns and labels:
Format in all cases: ADME, cell-based
[1] = tested on: HEK293; experiment: Cellular uptake in HEK293 cells assessed as labeled cells at 1 uM after 24 hrs by flow cytometry; conditions: human, hek293, 24 h
[2] = tested on: HEK293; experiment: Cellular uptake in HEK293 cells assessed as localization to cytoplasm at 1 uM after 24 hrs by fluorescence microscopy; conditions: human, hek293, 24 h
[3] = tested on: MCF7; experiment: Cellular uptake in human MCF7 cells assessed as increase in labeled cells at 1 uM after 24 hrs by flow cytometry; conditions: mcf7, 24 h
[4] = tested on: HEK293; experiment: Cellular uptake in HEK293 cells assessed as localization to nucleus at 1 uM after 24 hrs by fluorescence microscopy; conditions: human, hek293, 24 h
[5] = tested on: MCF7; experiment: Cellular uptake in human MCF7 cells assessed as labeled cells at 1 uM after 24 hrs by flow cytometry; conditions: mcf7, 24 h
[6] = tested on: HEK293; experiment: Cellular uptake in HEK293 cells assessed as intracellular localization at 1 uM after 24 hrs by fluorescence microscopy; conditions: human, hek293, 24 h

| SMILES | Drug uptake [1] [%] | further results |
| --- | --- | --- |
| CN(C)CCCNC(=O)c1cc(NC(=O)c2cc(NC(=O)c3cc(NC(=O)CCNc4cc(NC(=O)c5cc(NC(=O)c6cc(NC(=O)CCNc7cc(NC(=O)c8cc(NC(=O)c9cc(NC(=O)CCNc%10cc(NC(=O)c%11cc(NC(=O)c%12cc(NC(=O)CCNc%13cc(NC(=O)c%14cc(NC(=O)c%15cc(NC(=O)CCNC(=S)Nc%16ccc(-c%17c%18ccc(=O)cc-%18oc%18cc(O)ccc%17%18)c(C(=O)O)c%16)cn%15C)cn%14C)cn%13C)cn%12C)cn%11C)cn%10C)cn9C)cn8C)cn7C)cn6C)cn5C)cn4C)cn3C)cn2C)cn1C | > 82 | Drug uptake [2]: Active |
| CN(C)CCCNC(=O)c1nc(NC(=O)c2nc(NC(=O)c3nc(NC(=O)CCNc4nc(NC(=O)c5nc(NC(=O)c6nc(NC(=O)CCNc7nc(NC(=O)c8nc(NC(=O)c9nc(NC(=O)CCNc%10nc(NC(=O)c%11nc(NC(=O)c%12nc(NC(=O)CCNC(=S)Nc%13ccc(-c%14c%15ccc(=O)cc-%15oc%15cc(O)ccc%14%15)c(C(=O)O)c%13)cn%12C)cn%11C)cn%10C)cn9C)cn8C)cn7C)cn6C)cn5C)cn4C)cn3C)cn2C)cn1C | 1.1 | – |
| CN(C)CCCNC(=O)c1cc(NC(=O)c2cc(NC(=O)c3cc(NC(=O)CCNc4cc(NC(=O)c5cc(NC(=O)c6cc(NC(=O)CCNC(=S)Nc7ccc(-c8c9ccc(=O)cc-9oc9cc(O)ccc89)c(C(=O)O)c7)cn6C)cn5C)cn4C)cn3C)cn2C)cn1C | > 82 | Drug uptake [3]: Active; Drug uptake [4]: Active |
| CN(C)CCCNC(=O)c1cc(NC(=O)c2cc(NC(=O)c3cc(NC(=O)CCNC(=S)Nc4ccc(-c5c6ccc(=O)cc-6oc6cc(O)ccc56)c(C(=O)O)c4)cn3C)cn2C)cn1C | 53 | – |
| CN(C)CCCNC(=O)c1nc(NC(=O)c2nc(NC(=O)c3nc(NC(=O)CCNc4nc(NC(=O)c5nc(NC(=O)c6nc(NC(=O)CCNc7nc(NC(=O)c8nc(NC(=O)c9nc(NC(=O)CCNC(=S)Nc%10ccc(-c%11c%12ccc(=O)cc-%12oc%12cc(O)ccc%11%12)c(C(=O)O)c%10)cn9C)cn8C)cn7C)cn6C)cn5C)cn4C)cn3C)cn2C)cn1C | 3 | – |
| CN(C)CCCNC(=O)c1cc(NC(=O)c2cc(NC(=O)c3cc(NC(=O)CCCNC(=O)c4cc(NC(=O)c5cc(NC(=O)c6cc(NC(=O)CCNC(=S)Nc7ccc(-c8c9ccc(=O)cc-9oc9cc(O)ccc89)c(C(=O)O)c7)cn6C)cn5C)cn4C)cn3C)cn2C)cn1C | – | Drug uptake [5]: > 90% |
| CN(C)CCCNC(=O)c1cc(NC(=O)c2cc(NC(=O)c3cc(NC(=O)CCNc4cc(NC(=O)c5cc(NC(=O)c6cc(NC(=O)CCNc7cc(NC(=O)c8cc(NC(=O)c9cc(NC(=O)CCNc%10cc(NC(=O)c%11cc(NC(=O)c%12cc(NC(=O)CCNC(=S)Nc%13ccc(-c%14c%15ccc(=O)cc-%15oc%15cc(O)ccc%14%15)c(C(=O)O)c%13)cn%12C)cn%11C)cn%10C)cn9C)cn8C)cn7C)cn6C)cn5C)cn4C)cn3C)cn2C)cn1C | > 82 | – |
| CN(C)CCCNC(=O)c1cc(NC(=O)c2cc(NC(=O)c3cc(NC(=O)CCNc4cc(NC(=O)c5cc(NC(=O)c6cc(NC(=O)CCNc7cc(NC(=O)c8cc(NC(=O)c9cc(NC(=O)CCNc%10cc(NC(=O)c%11cc(NC(=O)c%12cc(NC(=O)CCNc%13cc(NC(=O)c%14cc(NC(=O)c%15cc(NC(=O)CCNc%16cc(NC(=O)c%17cc(NC(=O)c%18cc(NC(=O)CCNC(=S)Nc%19ccc(-c%20c%21ccc(=O)cc-%21oc%21cc(O)ccc%20%21)c(C(=O)O)c%19)cn%18C)cn%17C)cn%16C)cn%15C)cn%14C)cn%13C)cn%12C)cn%11C)cn%10C)cn9C)cn8C)cn7C)cn6C)cn5C)cn4C)cn3C)cn2C)cn1C | > 82 | Drug uptake [6]: Active; Drug uptake [2]: Active |
| CN(C)CCCNC(=O)c1nc(NC(=O)c2nc(NC(=O)c3nc(NC(=O)CCNC(=S)Nc4ccc(-c5c6ccc(=O)cc-6oc6cc(O)ccc56)c(C(=O)O)c4)cn3C)cn2C)cn1C | 53 | – |
| CN(C)CCCNC(=O)c1nc(NC(=O)c2nc(NC(=O)c3nc(NC(=O)CCNc4nc(NC(=O)c5nc(NC(=O)c6nc(NC(=O)CCNC(=S)Nc7ccc(-c8c9ccc(=O)cc-9oc9cc(O)ccc89)c(C(=O)O)c7)cn6C)cn5C)cn4C)cn3C)cn2C)cn1C | 39 | Drug uptake [3]: Not Active; Drug uptake [4]: Not Active |
| CN(C)CCCNC(=O)c1cc(NC(=O)c2cc(NC(=O)c3cc(NC(=O)CCNc4cc(NC(=O)c5cc(NC(=O)c6cc(NC(=O)CCNc7cc(NC(=O)c8cc(NC(=O)c9cc(NC(=O)CCNC(=S)Nc%10ccc(-c%11c%12ccc(=O)cc-%12oc%12cc(O)ccc%11%12)c(C(=O)O)c%10)cn9C)cn8C)cn7C)cn6C)cn5C)cn4C)cn3C)cn2C)cn1C | > 82 | Drug uptake [4]: Active |
